Reference: publication PMC4114755, “Identification of Polyketide Inhibitors Targeting 3-Dehydroquinate Dehydratase in the Shikimate Pathway of Enterococcus faecalis” (PLoS ONE, 2014)

T1: efDHQase (3-dehydroquinate dehydratase from Enterococcus faecalis; also DEF) (Enterococcus faecalis, UniProt P36923)
T1 construct: gene aroD; full-length aroD in modified pET-15b, N-terminal 10xHis tag removed with thrombin; expressed in E. coli aroD- pTara; homodimer; catalytic Lys170
T1 sequence (P36923 1-253): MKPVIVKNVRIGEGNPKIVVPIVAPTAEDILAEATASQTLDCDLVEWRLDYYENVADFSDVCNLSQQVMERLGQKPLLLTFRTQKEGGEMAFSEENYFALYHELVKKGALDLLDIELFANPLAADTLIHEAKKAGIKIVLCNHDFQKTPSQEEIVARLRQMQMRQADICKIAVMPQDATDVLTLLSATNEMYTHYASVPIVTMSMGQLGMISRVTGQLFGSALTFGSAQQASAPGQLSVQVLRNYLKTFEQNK

B1: efDHQase (3-dehydroquinate dehydratase from Enterococcus faecalis; also DEF) (Enterococcus faecalis V583) (protein)
chain: T1 sequence (P36923 1-253)
notes: full-length aroD in modified pET-15b, N-terminal 10xHis tag removed with thrombin; expressed in E. coli aroD- pTara; homodimer; catalytic Lys170

The molecules below were run on O=C1C[C@@](O)(C(=O)O)C[C@@H](O)[C@@H]1O (assay: purified protein). Conditions: 0.25 mM NADPH, 50 mM HEPES pH 7.5, 25°C, 10 nM efSHD as coupling enzyme.
Type: biochemical, Enterococcus faecalis

| Molecule | Km | kcat |
| --- | --- | --- |
| B1 | 65 µM | 110 s⁻¹ |

These molecules were tested against T1, efDHQase (3-dehydroquinate dehydratase from Enterococcus faecalis; also DEF) (assay: efSHD-coupled NADPH oxidation assay, […] nm). Conditions: not given.
Type: biochemical

| Molecule | Ki |
| --- | --- |
| O=c1ccc2ccc(O)cc2o1 [7-Hydroxycoumarin] | 42 ± 19 µM |
| O=c1ccc2cc(O[C@@H]3O[C@H](CO)[C@@H](O)[C@H](O)[C@H]3O)c(O)cc2o1 [Aesculine] | 180 ± 38 µM |
| O=c1c(O)c(-c2ccc(O)c(O)c2)oc2c(O[C@@H]3O[C@H](CO)[C@@H](O)[C@H](O)[C@H]3O)c(O)cc(O)c12 [Gossypin] | 79 ± 14 µM |
| O=c1cc(-c2ccc(O)c(O)c2)oc2cc(O)c([C@@H]3O[C@H](CO)[C@@H](O)[C@H](O)[C@H]3O)c(O)c12 [Homoorientin] | 140 ± 11 µM |
| O=c1cc(-c2ccc(O)c(O[C@@H]3O[C@H](CO)[C@@H](O)[C@H](O)[C@H]3O)c2)oc2cc(O[C@@H]3O[C@H](CO)[C@@H](O)[C@H](O)[C@H]3O)cc(O)c12 [Luteolin-3′-7-diglucoside] | 89 ± 3 µM |
| O=c1cc(-c2ccc(O)c(O)c2)oc2cc(O[C@@H]3O[C@H](CO)[C@@H](O)[C@H](O)[C@H]3O)cc(O)c12 [Luteolin-7-glucoside] | 69 ± 16 µM |
| O=C(/C=C/c1ccc(O)c(O)c1)c1ccc(O[C@@H]2O[C@H](CO)[C@@H](O)[C@H](O)[C@H]2O)c(O)c1O [Marein] | 340 ± 79 µM |
| C[C@@H]1O[C@@H](O[C@H]2[C@H](Oc3cc(O)c4c(=O)cc(-c5ccc(O)cc5)oc4c3)O[C@H](CO)[C@@H](O)[C@@H]2O)[C@H](O)[C@H](O)[C@H]1O [Rhoifolin] | 19 ± 9 µM |
| C[C@@H]1O[C@@H](OC[C@H]2O[C@@H](Oc3c(-c4ccc(O)c(O)c4)oc4cc(O)cc(O)c4c3=O)[C@H](O)[C@@H](O)[C@@H]2O)[C@H](O)[C@H](O)[C@H]1O [Rutin] | 210 ± 28 µM |
